In ChEMBL document CHEMBL4477173, “Additional Insights into the Obtusallene Family: Components of Laurencia marilzae” (2016):

What follows are compounds tested on HepG2 (assay: Induction of apoptosis in human HepG2 cells assessed as apoptotic cells at 50 uM by Annexin V-FITC/propidium iodide staining based flow cytometry relative to control).
Format: functional

| Structure (SMILES) | Activity |
| --- | --- |
| C[C@H]1/C=C/C[C@H](Br)[C@@H]2C[C@@H](Cl)[C@@H](C[C@H](C=C=CBr)O1)O2 | 47% |
| C[C@@H]1O[C@@H](C=C=CBr)C[C@H]2O[C@@H](C[C@H]2Cl)[C@@H](Br)C[C@H]2O[C@H]12 | >65% |
| C[C@@H]1O[C@@H](C=C=CBr)C[C@H]2O[C@@H](C[C@H]2Cl)[C@@H](Br)C[C@@H]2O[C@@H]12 | >70% |
